Test results from patent US20210333284A1, “METHODS AND MATERIALS FOR LARGE-SCALE ASSESSMENT OF LIGAND BINDING SELECTIVITY OF G-QUADRUPLEX RECOGNITION USING CUSTOM G4 MICROARRAYS” (Purdue Research Foundation, priority 2020, published 2021).

Columns and labels:
MYC expression = conditions: human breast cancer cell line; cited from earlier work
[1] = test system: MYC G4 flanking variants 5′-NNGGGTGGGGAGGGTGGGNN-3′; assay: G4 microarray competition with Cy5-PDS, flanking (tail) variants; set-up: species or system human; conditions: from reduction of Cy5-PDS binding in the presence of competitor
Description: Whether the microarray platform could be used to reveal the G4-binding specificity of unlabeled molecules via a competition with Cy5-PDS binding was explored. Three example molecules, unlabeled PDS, TMPyP4 (a planar molecule that nonspecifically binds G4 structures^14), and DC-34 (a molecule that selectively binds the MYC G4^15) were examined. […] The binding of unlabeled DC-34 was examined (FIG. 4). There appear to be no features that are better-bound in the presence of DC-34. […] This is consistent with the observation that DC-34 binds the top and bottom surfaces of the G4 and makes specific contacts with purines in the tail sequences.^15 The general properties of features in which DC-34 reduced binding of Cy5-PDS (ratio of PDS/PDS+DC-34) were also examined. […]
DNA Microarray Binding Experiments DNA microarray experiments were performed and analyzed as described previously. […]
Data Processing and Analysis Molecule-bound microarrays were scanned with an Agilent G5761A SureScan Dx Microarray Scanner System to detect Cy5 signal at two laser settings (30 and 100 PMT). Spot intensities from microarray images were extracted using Agilent Feature Extraction Software and are reported as raw fluorescence intensities. […]

human telomeric G4s = assay: G4 microarray competition with Cy5-PDS, telomeric G4s; format: binding; conditions: 1 μM BMVC and 1 μM Cy5-PDS
Description: (§1) Custom G4 microarrays have been designed that contain a total of 19,249 G4 DNA sequences [31, the entirety of disclosure of which, including the supplemental information, is incorporated herein by reference]. The G4 microarrays were created by covalently attaching thousands of unique G4-forming DNA 60-mers to a glass surface. Pyridostatin (PDS) is a known G4-interactive compound. […] To test the binding selectivity of BMVC, competition experiments using custom G4 microarrays were performed. The addition of potassium-containing solution to G4-forming oligonucleotides induced G4 formation. […] After washing to remove the unbound Cy5-PDS and BMVC, the fluorescence intensities of Cy5-PDS bound to DNA oligonucleotides were detected using a fluorescence scanner. The binding selectivity of BMVC to different G4 structures was assessed by measuring the relative fluorescence intensity reduction of Cy5-PDS as BMVC concentration increased.
(§2) To determine the G4-binding selectivity of BMVC, the BMVC binding to known G4 structures was examined, including 7 well-studied MYC promoter G4 sequences, 15 other oncogene promoter G4 sequences, and 3 human telomeric G4 sequences (TABLE 4). BMVC competes with the binding of Cy5-PDS to most G4 sequences in a dose-dependent manner as indicated by reduced fluorescence intensities (FIG. 8a). […]

MYC_14/23T G4 = assay: G4 microarray competition with Cy5-PDS, MYC_14/23T; format: binding, human; conditions: MYC_14/23T G4, 1 μM BMVC and 1 μM Cy5-PDS
Description: as §1, §2

[2] = test system: parallel-stranded MYC_14/23T, MYC1234 and VEGF G4s; assay: 1D 1H NMR titration with parallel G4s; format: binding, human
Description: (§3) The binding selectivity of BMVC to G4 structures and flanking sequences was confirmed by NMR titration experiments of BMVC to different G4 sequences, including parallel-stranded MYC_14/23T G4 and its 5′- and 3′-flanking variants, VEGF and MYC1234 G4s, basket-type human telomeric G4 (wtTel22 in Na+), and hybrid type human telomeric G4 (Tel26 in K+) (FIG. 12). BMVC binds best to the MYC_14/23T G4, as indicated by well-resolved imino proton peaks for BMVC complexes (FIG. 12, panel a). […] In contrast, the 3′-end binding of BMVC is sensitive to the mutations at the 3′-flanking sequence, with a clear preference for the 3′-flanking T. In addition, BMVC prefers at least two flanking bases for a specific binding.
(§4) G4 DNA oligonucleotides were synthesized using β-cyanoethylphosphoramidite solid-phase chemistry (Applied Biosystem Expedite 8909), as described previously. NMR experiments were performed on a Bruker AV-III-500-HD equipped with a BBFO Z-gradient cryoprobe. DNA samples were heated to 95° C. for 5 min, then cooled slowly for G4 formation. For the 1D 1H NMR experiments, samples contained 100-250 μM DNA in an appropriate buffer solution with 10% D2O for the lock. The titrations were performed by adding increasing amounts of the compounds to the DNA samples in solution.

[3] = test system: basket-type (wtTel22 in Na+) and hybrid-type (Tel26 in K+) human telomeric G4s; assay: 1D 1H NMR titration with telomeric G4s; format: binding
Description: as §3, §4

inhibition of Cy5-PDS binding to human telomeric G4s (human telomeric G4s): significantly inhibited | reduction of Cy5-PDS binding among all parallel G4s (MYC_14/23T G4): largest reduction | binding to MYC1234 and VEGF G4 by NMR titration ([2]; other parallel G4s): bind well | binding to MYC_14/23T G4 by NMR titration ([2]; well-resolved imino proton peaks, 95 mM K+, pH 7, 25° C.): binds best | binding to basket-type or hybrid-type human telomeric G4s by NMR titration [3]: did not show specific binding
SMILES: C[n+]1ccc(/C=C/c2ccc3[nH]c4ccc(/C=C/c5cc[n+](C)cc5)cc4c3c2)cc1.[I-].[I-] [BMVC, 3,6-Bis(1-methyl-4-vinylpyridinium) carbazole diiodide]
effect on MYC expression (MYC expression): represses MYC expression | flanking sequence preference of competitor [1]: strongly prefers the MYC G4 with the 3′-flanking T
